Test [1] has as its target hGYS1 enzyme (recombinant hGYS1/GN1 protein) (Homo sapiens (Human), UniProt P13807). As to the kind of experiment: GYS1 coupled enzyme assay (PK/LDH). The format is biochemical. The note with it: hGYS1/GN1 50 nM, UDP-Glucose 0.8 mM, G6P 1 mM; geometric mean of at least 2 runs.
The subject of test [2] is hGYS1 enzyme / glycogen synthesis in HeLa cells. As to the kind of experiment: GYS1 cell based assay (glycogen synthesis, Glucose-glo). Also on record: species or system human. The following applies: 24 h incubation, 20 mM glucose, geometric mean of at least 2 runs. The essentials:
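HeLa cells starved 24 h in medium containing only 1× Glutamax were plated onto compound in medium with 20 mM glucose (1% DMSO final) for 24 h, 37 °C, 5% CO2. Acid lysates were Tris-quenched, glucoamylase-digested (pH 5.3, 1 h, 37 °C) and read by Glucose-glo luminescence. IC50 came from Hill fits, as geometric mean of ≥2 runs.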

Test [3] deals with hGYS2 enzyme (recombinant hGYS2/GN1 protein) (Homo sapiens (Human), UniProt P54840). As to the kind of experiment: GYS2 coupled enzyme assay (PK/LDH). The format is biochemical. The note with it: geometric mean of at least 2 assay runs on separate days, read-out: Avg_IC50. In outline: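 IC50 came from Hill fits of duplicate percent inhibition, based on control-normalized slopes of 340 nm NADH decline read each minute for 10 min. The reaction held recombinant hGYS2/GN1 (200 nM) with glycogen, UDP-glucose, G6P and PEP, plus PK/LDH coupling at pH 7.5 and 2.5% DMSO.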
hGYS2 enzyme (recombinant hGYS2/GN1 protein), sequence (P54840 whole entry): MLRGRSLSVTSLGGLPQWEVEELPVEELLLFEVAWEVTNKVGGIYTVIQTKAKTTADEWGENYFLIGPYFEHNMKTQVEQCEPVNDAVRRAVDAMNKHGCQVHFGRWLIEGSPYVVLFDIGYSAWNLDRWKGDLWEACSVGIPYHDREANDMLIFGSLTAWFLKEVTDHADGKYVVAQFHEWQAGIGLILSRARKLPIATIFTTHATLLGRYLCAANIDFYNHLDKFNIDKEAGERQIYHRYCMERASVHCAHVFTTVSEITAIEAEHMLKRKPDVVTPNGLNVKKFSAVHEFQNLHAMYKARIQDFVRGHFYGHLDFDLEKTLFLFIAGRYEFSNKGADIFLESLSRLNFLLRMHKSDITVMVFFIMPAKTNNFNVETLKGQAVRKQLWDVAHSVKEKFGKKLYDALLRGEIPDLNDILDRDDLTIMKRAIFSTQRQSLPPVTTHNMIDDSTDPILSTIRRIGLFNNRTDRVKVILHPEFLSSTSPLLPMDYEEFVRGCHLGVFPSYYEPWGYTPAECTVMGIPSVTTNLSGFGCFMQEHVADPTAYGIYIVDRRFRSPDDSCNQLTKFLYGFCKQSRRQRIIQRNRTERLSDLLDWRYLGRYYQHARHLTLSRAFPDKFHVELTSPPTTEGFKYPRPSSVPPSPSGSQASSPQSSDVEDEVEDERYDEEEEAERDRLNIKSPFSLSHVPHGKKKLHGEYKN
hGYS2 enzyme (recombinant hGYS2/GN1 protein), sequence (P46976 whole entry partner): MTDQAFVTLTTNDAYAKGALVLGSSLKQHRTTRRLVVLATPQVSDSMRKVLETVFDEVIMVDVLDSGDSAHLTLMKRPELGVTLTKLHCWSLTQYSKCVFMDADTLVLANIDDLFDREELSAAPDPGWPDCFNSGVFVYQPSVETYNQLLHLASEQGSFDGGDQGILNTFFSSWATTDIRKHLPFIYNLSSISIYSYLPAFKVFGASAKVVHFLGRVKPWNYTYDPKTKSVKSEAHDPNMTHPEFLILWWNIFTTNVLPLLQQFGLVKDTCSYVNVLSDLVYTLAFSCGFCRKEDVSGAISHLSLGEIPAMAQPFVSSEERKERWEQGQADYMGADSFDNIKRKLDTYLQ

hGYS1 enzyme (recombinant hGYS1/GN1 protein), sequence (P13807 whole entry): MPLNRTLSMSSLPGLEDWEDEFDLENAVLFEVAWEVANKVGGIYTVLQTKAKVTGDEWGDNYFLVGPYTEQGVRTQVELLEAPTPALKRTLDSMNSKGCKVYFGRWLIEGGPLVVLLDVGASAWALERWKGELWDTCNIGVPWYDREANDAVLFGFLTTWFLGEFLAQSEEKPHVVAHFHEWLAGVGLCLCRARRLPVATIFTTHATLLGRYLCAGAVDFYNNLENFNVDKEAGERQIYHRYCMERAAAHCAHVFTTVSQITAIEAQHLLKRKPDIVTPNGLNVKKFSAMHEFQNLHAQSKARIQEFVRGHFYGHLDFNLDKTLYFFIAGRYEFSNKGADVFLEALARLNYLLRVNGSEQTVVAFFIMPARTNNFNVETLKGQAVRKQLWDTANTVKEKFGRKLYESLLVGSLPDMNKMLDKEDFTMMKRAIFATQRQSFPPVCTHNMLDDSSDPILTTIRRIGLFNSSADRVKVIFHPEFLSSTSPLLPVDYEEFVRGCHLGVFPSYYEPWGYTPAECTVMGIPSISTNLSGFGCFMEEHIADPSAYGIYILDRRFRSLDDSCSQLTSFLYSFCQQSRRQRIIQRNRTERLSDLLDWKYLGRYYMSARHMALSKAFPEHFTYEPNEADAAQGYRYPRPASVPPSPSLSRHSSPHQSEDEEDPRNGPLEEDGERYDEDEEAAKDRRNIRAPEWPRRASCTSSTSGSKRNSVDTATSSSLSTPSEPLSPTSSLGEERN
hGYS1 enzyme (recombinant hGYS1/GN1 protein), sequence (P46976 whole entry partner): as the sequence (P46976 whole entry partner) above

In the case of `Cc1cn(CC(=O)N2C[C@H](F)C[C@H]2C(=O)N[C@@H](c2ccccc2)c2ccc(C3CC3)c(F)n2)c(=O)[nH]c1=O` [Compound 295, (2S,4R)-N-[(S)-(5-cyclopropyl-6-fluoropyridin-2-yl)(phenyl)methyl]-4-fluoro-1-[2-(5-methyl-2,4-dioxo-1,2,3,4-tetrahydropyrimidin-1-yl)acetyl]pyrrolidine-2-carboxamide], the IC50 in test [1] was 13 nM; in test [2] (Homo sapiens, HeLa, 24 h) it was 590 nM; in test [3], > 100000 nM.

For `O=C(N[C@@H](c1ccccc1)c1ccc(C2CC(F)(F)C2)c(F)n1)[C@@H]1C[C@@H](F)CN1C(=O)Cc1ccc[nH]c1=O` [Compound 517, (2S,4R)-N-[(S)-[5-(3,3-difluorocyclobutyl)-6-fluoropyridin-2-yl](phenyl)methyl]-4-fluoro-1-[2-(2-oxo-1,2-dihydropyridin-3-yl)acetyl]pyrrolidine-2-carboxamide], the IC50 in test [1] is 8 nM; in test [2] (Homo sapiens, HeLa, 24 h), 540 nM; in test [3], > 100000 nM.

On to `Cc1cnc(CC(=O)N2C[C@H](F)C[C@H]2C(=O)N[C@@H](c2ccccc2)c2ccc(C3CC3)c(F)n2)o1` [Compound 313, (2S,4R)-N-[(S)-(5-cyclopropyl-6-fluoropyridin-2-yl)(phenyl)methyl]-4-fluoro-1-[2-(5-methyl-1,3-oxazol-2-yl)acetyl]pyrrolidine-2-carboxamide], for which the IC50 was 39 nM in test [1]; 860 nM in test [2] (Homo sapiens, HeLa, 24 h); > 100000 nM in test [3].

For `O=C(N[C@@H](c1ccccc1)c1ccc(C2CC(F)(F)C2)c(F)n1)[C@@H]1C[C@@H](F)CN1C(=O)Cc1[nH]nnc1C(F)(F)F` [Compound 510, (2S,4R)-N-[(S)-[5-(3,3-difluorocyclobutyl)-6-fluoropyridin-2-yl](phenyl)methyl]-4-fluoro-1-{2-[4-(trifluoromethyl)-1H-1,2,3-triazol-5-yl]acetyl} pyrrolidine-2-carboxamide], the IC50 in test [1] is 9 nM; in test [2] (Homo sapiens, HeLa, 24 h), 230 nM; in test [3], > 100000 nM.

Turning to `CC(C)c1ccc([C@@H](NC(=O)[C@@H]2C[C@@H](F)CN2C(=O)Cc2n[nH]c(=O)n2C)c2ccccc2)nc1F` [Compound 398, (2S,4R)-4-fluoro-N-[(S)-[6-fluoro-5-(propan-2-yl)pyridin-2-yl](phenyl)methyl]-1-[2-(4-methyl-5-oxo-4,5-dihydro-1H-1,2,4-triazol-3-yl)acetyl] pyrrolidine-2-carboxamide], the IC50 in test [1] is 9 nM; in test [2] (Homo sapiens, HeLa, 24 h), 280 nM; in test [3] it was > 100000 nM.

Turning to `Cn1nc(CC(=O)N2C[C@H](F)C[C@H]2C(=O)N[C@@H](c2ccccc2)c2ccc(C3CC3)c(F)c2)c2ccccc21` [Compound 459, (2S,4R)-N-[(S)-(4-cyclopropyl-3-fluorophenyl)(phenyl)methyl]-4-fluoro-1-[2-(1-methyl-1H-indazol-3-yl)acetyl]pyrrolidine-2-carboxamide], the IC50 in test [1] was 28 nM; in test [2] (Homo sapiens, HeLa, 24 h), 750 nM; in test [3] it was > 100000 nM.

As to `Cc1cnc(CC(=O)N2C[C@H](F)C[C@H]2C(=O)N[C@@H](c2ccccc2)c2ccc(C3CC(F)(F)C3)c(F)c2)o1` [Compound 550, (2S,4R)-N-[(S)-[4-(3,3-difluorocyclobutyl)-3-fluorophenyl](phenyl)methyl]-4-fluoro-1-[2-(5-methyl-1,3-oxazol-2-yl)acetyl]pyrrolidine-2-carboxamide], the IC50 in test [1] was 42 nM; in test [2] (Homo sapiens, HeLa, 24 h), 650 nM; in test [3] it was > 100000 nM.

Regarding `CC(C)c1ccc([C@@H](NC(=O)[C@@H]2C[C@@H](F)CN2C(=O)C(O)c2cnn[nH]2)c2ccccc2)cc1F` (single isomer, unassigned) [Compound 773, (2S,4R)-4-fluoro-N -[(S)-[3-fluoro-4-(propan-2-yl)phenyl](phenyl)methyl]-1-[(2R) or (2S)-2-hydroxy-2-(1H-1,2,3-triazol-5-yl)acetyl]pyrrolidine-2-carboxamide], the IC50 in test [1] is 124 nM; in test [2], 1200 nM; in test [3], > 100000 nM.

For the compound `Cc1nnn(CC(=O)N2C[C@H](F)C[C@H]2C(=O)NC(c2ccccc2)c2cc(C)c(C3CC3)c(F)c2)n1` (single isomer, unassigned) [Compound 682, (2S,4R)-N-[(S) or (R)-(4-cyclopropyl-3-fluoro-5-methylphenyl) (phenyl)methyl]-4-fluoro-1-[2-(5-methyl-2H-1,2,3,4-tetrazol-2-yl)acetyl]pyrrolidine-2-carboxamide], the IC50 in test [1] is 116 nM; in test [2] (Homo sapiens, HeLa, 24 h), 2090 nM; in test [3] it was > 100000 nM.

As to `CC(C(=O)N1C[C@H](F)C[C@H]1C(=O)N[C@@H](c1ccccc1)c1ccc(C2(C)CC2)c(F)n1)n1cnc2ccccc21` (single isomer, unassigned) [Compound 587, (2S,4R)-1-((R) or (S)-2-(1H-benzo[d]imidazol-1-yl)propanoyl)-4-fluoro-N—((S)-(6-fluoro-5-(1-methylcyclopropyl)pyridin-2-yl)(phenyl)methyl)pyrrolidine-2-carboxamide], the results for the IC50 in test [1], in test [2] and in test [3] were 109 nM, 2390 nM and > 100000 nM, respectively.

`CC(C)c1ccc([C@@H](NC(=O)[C@@H]2C[C@@H](F)CN2C(=O)Cc2nnc(CN(C)C)o2)c2ccccc2)cc1` [Compound 242, (2S,4R)-1-(2-{5-[(dimethylamino)methyl]-1,3,4-oxadiazol-2-yl}acetyl)-4-fluoro-N-[(S)-phenyl[4-(propan-2-yl)phenyl]methyl]pyrrolidine-2-carboxamide]: the IC50 in test [1] was 79 nM; in test [2] (Homo sapiens, HeLa, 24 h), 1140 nM; in test [3], > 100000 nM.

For `Cc1nccc(NCC(=O)N2C[C@H](F)C[C@H]2C(=O)N[C@@H](c2ccccc2)c2ccc(C3CC3)c(F)n2)n1` [Compound 308, (2S,4R)-N-[(S)-(5-cyclopropyl-6-fluoropyridin-2-yl)(phenyl)methyl]-4-fluoro-1-{2-[(2-methylpyrimidin-4-yl)amino]acetyl}pyrrolidine-2-carboxamide], the IC50 in test [1] is 11 nM; in test [2] (Homo sapiens, HeLa, 24 h) it was 330 nM; in test [3] it was > 100000 nM.

Turning to `CN(C)C(=O)NCC(=O)N1C[C@H](F)C[C@H]1C(=O)N[C@H](c1ccccc1)c1ccc(C2CC(F)(F)C2)c(F)c1` [Compound 548, (2S,4R)-N-[(R)-[4-(3,3-difluorocyclobutyl)-3-fluorophenyl](phenyl)methyl]-1-{2-[(dimethylcarbamoyl)amino]acetyl}-4-fluoropyrrolidine-2-carboxamide], the IC50 was 328 nM in test [1]; 5760 nM in test [2] (Homo sapiens, HeLa, 24 h); > 100000 nM in test [3].

For the compound `CC(C)c1ccc([C@@H](NC(=O)[C@@H]2C[C@@H](F)CN2C(=O)[C@H](C)NC(=O)N(C)C)c2ccccc2)nc1F` [Compound 405, (2S,4R)-1-[(2S)-2-[(dimethylcarbamoyl)amino]propanoyl]-4-fluoro-N-[(S)-[6-fluoro-5-(propan-2-yl)pyridin-2-yl](phenyl)methyl] pyrrolidine-2-carboxamide], the IC50 in test [1] was 20 nM; in test [2] (Homo sapiens, HeLa, 24 h), 490 nM; in test [3], > 100000 nM.

With `CCn1c(=O)ccn(CC(=O)N2C[C@H](F)C[C@H]2C(=O)N[C@@H](c2ccccc2)c2ccc(C3CC3)c(F)n2)c1=O` [Compound 735, (2S,4R)-N-[(S)-(5-cyclopropyl-6-fluoropyridin-2-yl)(phenyl)methyl]-1-[2-(3-ethyl-2,4-dioxo-1,2,3,4-tetrahydropyrimidin-1 yl)acetyl]-4-fluoropyrrolidine-2-carboxamide], the IC50 in test [1] was 5 nM; in test [2] (Homo sapiens, HeLa, 24 h) it was 270 nM; in test [3], > 100000 nM.

Regarding `CC(C)c1ccc([C@@H](NC(=O)[C@@H]2C[C@@H](F)CN2C(=O)Cc2cccn3c(=O)[nH]nc23)c2ccccc2)nc1F` [Compound 391, (2S,4R)-4-fluoro-N-[(S)-[6-fluoro-5-(propan-2-yl)pyridin-2-yl](phenyl)methyl]-1-(2-{3-oxo-2H,3H-[1,2,4]triazolo[4,3-a]pyridin-8-yl}acetyl) pyrrolidine-2-carboxamide], the IC50 in test [1] came out at 6 nM; in test [2] (Homo sapiens, HeLa, 24 h) it was 150 nM; in test [3], 89300 nM.

As to `O=C(N[C@@H](c1ccccc1)c1ccc(C2CC2)c(F)n1)[C@@H]1C[C@@H](F)CN1C(=O)Cc1ccc(=O)[nH]c1` [Compound 734, (2S,4R)-N-[(S)-(5-cyclopropyl-6-fluoropyridin-2-yl)(phenyl)methyl]-4-fluoro-1-[2-(6-oxo-1,6-dihydropyridin-3-yl)acetyl]pyrrolidine-2-carboxamide], the IC50 in test [1] was 26 nM; in test [2] (Homo sapiens, HeLa, 24 h), 1730 nM; in test [3], > 100000 nM.

Turning to `CC(C)c1ccc([C@@H](NC(=O)[C@@H]2C[C@@H](F)CN2S(=O)(=O)Cc2cnn[nH]2)c2ccccc2)cc1F` [Compound 772, (2S,4R)-4-fluoro-N-[(S)-[3-fluoro-4-(propan-2-yl)phenyl](phenyl)methyl]-1-[(1H-1,2,3-triazol-5-yl)methanesulfonyl] pyrrolidine-2-carboxamide], the IC50 was 356 nM in test [1]; 4530 nM in test [2] (Homo sapiens, HeLa, 24 h); > 100000 nM in test [3].

These data come from patent US11814367B2, “Inhibitors of glycogen synthase 1 (GYS1) and methods of use thereof” (Maze Therapeutics, Inc., priority 2021, dated 2023).
